SMILES strings stand for the structures.

Some targets named below: PAK6 (Homo sapiens, UniProt Q9NQU5); PIP4K2B (Homo sapiens, UniProt P78356); RPS6KA5 (Homo sapiens, UniProt O75582); TEC (Homo sapiens, UniProt P42680); CLK1 (Homo sapiens, UniProt P49759); MAP3K1 (Homo sapiens, UniProt Q13233); PFKL (Homo sapiens, UniProt P17858); STK38L (Homo sapiens, UniProt Q9Y2H1); ACVR1 (Homo sapiens, UniProt Q04771); CAMK4 (Homo sapiens, UniProt Q16566); RPS6KA6 (Homo sapiens, UniProt Q9UK32); ADCK1 (Homo sapiens, UniProt Q86TW2); CHUK (Homo sapiens, UniProt O15111); PTK2 (Homo sapiens, UniProt Q05397); ATM (Homo sapiens, UniProt Q13315); MELK (Homo sapiens, UniProt Q14680); NEK1 (Homo sapiens, UniProt Q96PY6); MAP2K2 (Homo sapiens, UniProt P36507); PRKD3 (Homo sapiens, UniProt O94806); PRKCD (Homo sapiens, UniProt Q05655); PRKDC (Homo sapiens, UniProt P78527).

What all share (experiment): biochemical
Holding throughout (set-up): species or system HEK293/K-562/placenta mixed human extract; Kinobeads chemoproteomic competition binding, quantified by TMT LC-MS/MS, dose response up to 20 uM

Chain of NEK1 (Q96PY6 whole entry): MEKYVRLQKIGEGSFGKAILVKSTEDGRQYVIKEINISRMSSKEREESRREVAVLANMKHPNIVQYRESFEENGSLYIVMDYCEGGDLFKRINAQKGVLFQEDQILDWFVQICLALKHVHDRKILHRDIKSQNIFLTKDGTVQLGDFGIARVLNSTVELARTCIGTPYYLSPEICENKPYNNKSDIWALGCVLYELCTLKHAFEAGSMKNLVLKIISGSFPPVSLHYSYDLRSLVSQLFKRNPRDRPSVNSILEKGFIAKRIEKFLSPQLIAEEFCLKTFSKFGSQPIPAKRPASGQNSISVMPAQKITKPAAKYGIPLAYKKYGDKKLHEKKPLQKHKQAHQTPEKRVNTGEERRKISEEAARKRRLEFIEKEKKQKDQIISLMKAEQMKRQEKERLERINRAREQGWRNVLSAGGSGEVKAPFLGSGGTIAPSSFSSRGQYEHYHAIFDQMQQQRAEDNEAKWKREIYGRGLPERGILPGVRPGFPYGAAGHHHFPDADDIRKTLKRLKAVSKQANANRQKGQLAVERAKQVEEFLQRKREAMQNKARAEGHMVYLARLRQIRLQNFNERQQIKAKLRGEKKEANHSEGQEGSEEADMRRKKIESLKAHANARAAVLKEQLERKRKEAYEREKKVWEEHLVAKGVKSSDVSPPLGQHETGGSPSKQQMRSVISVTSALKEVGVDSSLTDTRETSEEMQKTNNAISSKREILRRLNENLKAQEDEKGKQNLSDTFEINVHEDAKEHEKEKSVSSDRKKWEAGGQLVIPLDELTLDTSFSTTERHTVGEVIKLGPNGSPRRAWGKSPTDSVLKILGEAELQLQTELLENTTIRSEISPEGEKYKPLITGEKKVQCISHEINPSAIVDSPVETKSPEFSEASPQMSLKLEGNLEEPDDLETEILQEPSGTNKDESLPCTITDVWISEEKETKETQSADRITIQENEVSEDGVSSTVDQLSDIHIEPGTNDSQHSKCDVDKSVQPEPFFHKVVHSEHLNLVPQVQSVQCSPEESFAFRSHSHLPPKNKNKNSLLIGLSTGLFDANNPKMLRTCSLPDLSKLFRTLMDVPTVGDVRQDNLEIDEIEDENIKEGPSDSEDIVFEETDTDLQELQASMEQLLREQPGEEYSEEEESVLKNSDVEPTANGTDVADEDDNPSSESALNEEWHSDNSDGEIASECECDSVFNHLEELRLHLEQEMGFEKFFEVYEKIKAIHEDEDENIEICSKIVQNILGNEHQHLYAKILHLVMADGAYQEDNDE
Chain of PRKCD (Q05655 whole entry): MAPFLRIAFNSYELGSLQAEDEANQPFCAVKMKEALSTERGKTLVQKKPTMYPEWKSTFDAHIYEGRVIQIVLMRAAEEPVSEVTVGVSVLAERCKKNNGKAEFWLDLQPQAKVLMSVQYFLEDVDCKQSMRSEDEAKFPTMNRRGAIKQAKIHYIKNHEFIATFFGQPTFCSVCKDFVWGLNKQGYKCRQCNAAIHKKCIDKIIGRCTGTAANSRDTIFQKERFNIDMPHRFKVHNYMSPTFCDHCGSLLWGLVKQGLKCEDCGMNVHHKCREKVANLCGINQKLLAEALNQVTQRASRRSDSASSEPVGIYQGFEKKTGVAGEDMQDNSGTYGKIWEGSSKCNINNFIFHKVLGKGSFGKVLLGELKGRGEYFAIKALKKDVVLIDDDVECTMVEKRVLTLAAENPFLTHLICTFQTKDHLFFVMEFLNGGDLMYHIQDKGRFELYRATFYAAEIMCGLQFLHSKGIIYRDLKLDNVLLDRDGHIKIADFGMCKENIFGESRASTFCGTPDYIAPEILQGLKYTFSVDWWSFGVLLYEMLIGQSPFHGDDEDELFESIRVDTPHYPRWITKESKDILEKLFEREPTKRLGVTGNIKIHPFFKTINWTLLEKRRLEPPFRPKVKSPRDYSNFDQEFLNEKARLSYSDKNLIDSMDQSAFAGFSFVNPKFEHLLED
Chain of PTK2 (Q05397 whole entry): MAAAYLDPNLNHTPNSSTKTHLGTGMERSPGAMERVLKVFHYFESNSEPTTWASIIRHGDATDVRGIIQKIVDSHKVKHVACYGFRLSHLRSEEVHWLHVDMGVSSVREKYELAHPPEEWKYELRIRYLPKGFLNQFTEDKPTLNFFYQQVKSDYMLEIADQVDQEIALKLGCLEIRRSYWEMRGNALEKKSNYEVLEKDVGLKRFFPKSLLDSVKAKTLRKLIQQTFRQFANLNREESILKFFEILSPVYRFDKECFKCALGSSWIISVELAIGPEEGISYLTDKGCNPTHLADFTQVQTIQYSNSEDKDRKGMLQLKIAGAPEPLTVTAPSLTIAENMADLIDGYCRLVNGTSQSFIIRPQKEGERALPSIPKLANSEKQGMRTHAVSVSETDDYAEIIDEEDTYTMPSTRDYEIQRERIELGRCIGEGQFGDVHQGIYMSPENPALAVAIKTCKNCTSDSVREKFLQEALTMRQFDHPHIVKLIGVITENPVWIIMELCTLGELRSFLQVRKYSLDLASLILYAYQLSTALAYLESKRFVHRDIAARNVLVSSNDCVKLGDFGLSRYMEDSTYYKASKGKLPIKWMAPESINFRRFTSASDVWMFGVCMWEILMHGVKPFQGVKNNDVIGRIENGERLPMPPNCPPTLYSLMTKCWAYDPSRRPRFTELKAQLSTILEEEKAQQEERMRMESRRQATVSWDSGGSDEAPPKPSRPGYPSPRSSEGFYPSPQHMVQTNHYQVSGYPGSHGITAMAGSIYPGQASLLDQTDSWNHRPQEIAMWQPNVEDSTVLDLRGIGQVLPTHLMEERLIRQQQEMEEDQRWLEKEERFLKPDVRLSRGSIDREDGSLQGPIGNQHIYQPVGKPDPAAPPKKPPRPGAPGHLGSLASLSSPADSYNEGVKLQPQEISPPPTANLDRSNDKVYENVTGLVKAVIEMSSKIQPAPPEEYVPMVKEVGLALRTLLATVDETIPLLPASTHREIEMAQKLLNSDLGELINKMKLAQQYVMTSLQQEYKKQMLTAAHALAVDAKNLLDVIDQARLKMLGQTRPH
Chain of MELK (Q14680 whole entry): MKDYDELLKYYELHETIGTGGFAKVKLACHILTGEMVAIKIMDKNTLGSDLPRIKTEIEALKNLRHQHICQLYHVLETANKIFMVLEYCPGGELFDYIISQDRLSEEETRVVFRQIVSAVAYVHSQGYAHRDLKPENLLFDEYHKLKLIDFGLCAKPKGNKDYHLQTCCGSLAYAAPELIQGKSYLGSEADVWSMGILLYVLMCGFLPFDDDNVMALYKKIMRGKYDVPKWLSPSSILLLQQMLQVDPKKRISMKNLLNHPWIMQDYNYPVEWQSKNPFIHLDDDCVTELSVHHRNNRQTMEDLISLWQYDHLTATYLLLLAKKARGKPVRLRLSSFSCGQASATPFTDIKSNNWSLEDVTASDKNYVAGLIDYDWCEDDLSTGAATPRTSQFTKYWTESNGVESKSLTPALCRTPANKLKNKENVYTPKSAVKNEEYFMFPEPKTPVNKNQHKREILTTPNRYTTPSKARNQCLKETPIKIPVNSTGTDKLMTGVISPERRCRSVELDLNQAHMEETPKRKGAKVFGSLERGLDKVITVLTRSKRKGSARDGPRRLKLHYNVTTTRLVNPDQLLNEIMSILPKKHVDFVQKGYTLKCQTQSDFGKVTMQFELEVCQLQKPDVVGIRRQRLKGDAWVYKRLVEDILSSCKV
Chain of STK38L (Q9Y2H1 whole entry): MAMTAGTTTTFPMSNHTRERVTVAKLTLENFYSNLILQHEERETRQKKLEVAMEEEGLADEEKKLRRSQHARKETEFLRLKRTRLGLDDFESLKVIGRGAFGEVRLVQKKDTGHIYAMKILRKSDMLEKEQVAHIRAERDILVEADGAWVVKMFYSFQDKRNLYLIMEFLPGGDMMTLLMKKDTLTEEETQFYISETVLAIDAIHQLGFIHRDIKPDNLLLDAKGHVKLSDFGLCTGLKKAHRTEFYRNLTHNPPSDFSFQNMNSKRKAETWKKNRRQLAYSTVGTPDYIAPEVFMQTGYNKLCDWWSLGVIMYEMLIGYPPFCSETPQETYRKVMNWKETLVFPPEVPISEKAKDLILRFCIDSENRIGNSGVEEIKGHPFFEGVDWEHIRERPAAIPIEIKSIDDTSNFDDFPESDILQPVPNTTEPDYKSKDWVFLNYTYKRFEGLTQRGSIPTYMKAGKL
Chain of ACVR1 (Q04771 whole entry): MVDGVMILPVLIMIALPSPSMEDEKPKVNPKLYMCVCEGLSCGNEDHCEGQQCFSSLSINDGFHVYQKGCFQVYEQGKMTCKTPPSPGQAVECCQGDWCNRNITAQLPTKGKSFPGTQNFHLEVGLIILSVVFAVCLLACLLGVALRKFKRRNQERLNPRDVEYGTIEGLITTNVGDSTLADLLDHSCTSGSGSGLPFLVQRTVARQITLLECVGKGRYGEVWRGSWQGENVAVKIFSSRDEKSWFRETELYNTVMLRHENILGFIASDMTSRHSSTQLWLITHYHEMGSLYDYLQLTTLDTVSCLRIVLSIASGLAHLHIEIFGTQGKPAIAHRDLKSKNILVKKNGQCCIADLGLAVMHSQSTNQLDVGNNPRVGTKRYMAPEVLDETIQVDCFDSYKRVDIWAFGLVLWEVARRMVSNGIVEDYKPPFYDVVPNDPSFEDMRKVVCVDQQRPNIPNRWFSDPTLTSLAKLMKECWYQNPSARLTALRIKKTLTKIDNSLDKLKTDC
Chain of MAP2K2 (P36507 whole entry): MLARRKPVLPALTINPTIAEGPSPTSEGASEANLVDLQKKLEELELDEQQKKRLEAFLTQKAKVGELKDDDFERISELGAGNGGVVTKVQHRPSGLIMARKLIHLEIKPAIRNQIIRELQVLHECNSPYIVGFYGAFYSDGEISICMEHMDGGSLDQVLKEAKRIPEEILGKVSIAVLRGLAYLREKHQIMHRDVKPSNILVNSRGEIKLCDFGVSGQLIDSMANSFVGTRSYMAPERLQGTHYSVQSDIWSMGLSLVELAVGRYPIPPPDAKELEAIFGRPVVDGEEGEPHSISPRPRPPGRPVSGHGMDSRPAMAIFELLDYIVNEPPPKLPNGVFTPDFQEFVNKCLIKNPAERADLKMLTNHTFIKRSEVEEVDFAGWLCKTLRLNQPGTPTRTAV

As for `COc1ccccc1-c1n[nH]c2nc(N[C@H]3CC[C@H](NS(=O)(=O)CCC(F)(F)F)CC3)nc(OC)c12` [compound 31, 3,3,3-Trifluoro-N-(trans-4-((4-methoxy-3-(2-methoxyphenyl)-1H-pyrazolo[3,4-d]pyrimidin-6-yl)amino)cyclohexyl)propane-1-sulfonamide], the IC50 is at least 20 µM at PAK6; 9.4 µM at PIP4K2B; at least 20 µM at RPS6KA5; at least 20 µM at TEC; at least 20 µM at CLK1; at least 20 µM on MAP3K1. The IC50 on PFKL, on STK38L, on ACVR1, at CAMK4, on RPS6KA6 and on ADCK1 was at least 20 µM in each case. In addition, the IC50 on CHUK, on PTK2, at ATM, at MELK, on NEK1 and on MAP2K2 was at least 20 µM in each case. The IC50 at PRKD3, at PRKCD and on PRKDC was at least 20 µM throughout.

In general, IC50 refers to the concentration needed to halve the response being measured. Low readings indicate greater potency, high ones weaker potency.

The values above are taken from article PMC6407917, “Identification of GSK3186899/DDD853651 as a Preclinical Development Candidate for the Treatment of Visceral Leishmaniasis” (Journal of Medicinal Chemistry, 2018).
